Measured values taken from patent US20240182445A1 (ONO PHARMACEUTICAL CO., LTD., priority 2019, published 2024).

target: T1, human TREK-1 (Homo sapiens, UniProt O95069); assay: TREK-1 Thallium (Tl+) flux assay, Method 1; format: cell-based; conditions: TREK-1 Thallium (Tl+) flux assay, Method 1
T1 construct: expressed in transfected cells
T1 sequence (O95069 1-426): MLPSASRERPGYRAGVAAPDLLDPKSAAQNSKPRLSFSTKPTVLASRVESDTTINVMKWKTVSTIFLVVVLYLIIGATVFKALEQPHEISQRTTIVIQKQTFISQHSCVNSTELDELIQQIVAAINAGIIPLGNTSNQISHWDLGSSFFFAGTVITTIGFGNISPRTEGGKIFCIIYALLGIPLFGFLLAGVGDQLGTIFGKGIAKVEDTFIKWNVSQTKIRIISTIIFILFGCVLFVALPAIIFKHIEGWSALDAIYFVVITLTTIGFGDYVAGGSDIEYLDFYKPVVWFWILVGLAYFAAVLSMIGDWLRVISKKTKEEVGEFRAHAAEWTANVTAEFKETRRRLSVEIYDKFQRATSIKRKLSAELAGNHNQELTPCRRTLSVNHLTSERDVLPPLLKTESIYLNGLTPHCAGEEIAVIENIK
Description: The term “thallium flux assay” herein refers to a fluorescence-based assay used to monitor the activity of TREK channels. Thallium is a congener of potassium that readily fluxes through the pore of TREK channels. Thallium flux is measured using a commercially available, thallium-sensitive fluorescent dye called Thallos. The detail method is described below.
CHO-K1 cells stably expressing human TREK-1 were plated in 384-well plates, cultured overnight, loaded with Thallos dye the following day. Test compounds or control compound (tert-butyl (3-((4-(benzyloxy)-2-methylphenyl)carbamoyl)-4-chlorophenyl)carbamate) or 0.3% DMSO (vehicle control) which were prepared on separate plates were added to the cell plates and incubated for 10 min, and then the cells were treated with thallium stimulus buffer to initiate thallium flux. To measure the efficacy and potency of test compounds, the change in fluorescence intensity (ΔRatio) and % inhibition were calculated using the following equations:
ΔRatio=(fluorescence intensity at 25 seconds after thallium addition)/(average of fluorescent intensity before thallium addition)

Compound | IC50
Cc1cc(OCc2ccccc2)ccc1NC(=O)c1c(Cl)cnn1CC1CN(C(=O)C2CC2C)CCO1 (stereo not drawn) [Compound 417, N-(4-(benzyloxy)-2-methylphenyl)-4-chloro-1-((4-(2-methylcyclopropane-1-carbonyl)morpholin-2-yl)methyl)-1H-pyrazole-5-carboxamide] | 4160 nM

same assay, conditions: TREK-1 Thallium (Tl+) flux assay; no *^12 (Method 2) mark on these rows

Compound | IC50
Cc1cc(C#Cc2ccccc2)cnc1NC(=O)c1c(Cl)cnn1-c1ccc2occc2c1 [Compound 304, 1-(benzofuran-5-yl)-4-chloro-N-(3-methyl-5-(phenylethynyl)pyridin-2-yl)-1H-pyrazole-5-carboxamide] | 570 nM
CC(C)(C)OC(=O)N1CC[C@@H](n2ncc(Cl)c2C(=O)Nc2ncc(C#Cc3ccccc3)cc2F)[C@H](F)C1 [Compound 337, tert-butyl (3R,4R)-4-(4-chloro-5-((3-fluoro-5-(phenylethynyl)pyridin-2-yl)carbamoyl)-1H-pyrazol-1-yl)-3-fluoropiperidine-1-carboxylate] | 720 nM
Cc1cc(C#Cc2cccs2)cnc1NC(=O)c1c(Cl)cnn1[C@H]1C[C@@H]2CN(C(=O)C3CC3)C[C@@H]2C1 [Compound 204, 4-chloro-1-[(3aR,5s,6aS)-2-(cyclopropanecarbonyl)octahydrocyclo-penta[c]pyrrol-5-yl]-N-{3-methyl-5-[(thiophen-2-yl)ethynyl]pyridin-2-yl}-1H-pyrazole-5-carboxamide] | 310 nM
Cc1cc(C#Cc2ccccc2)cnc1NC(=O)c1c(Cl)cnn1CC1CCN(C(=O)OC(C)(C)C)CC1C (stereo not drawn) [Compound 265, tert-butyl 4-((4-chloro-5-((3-methyl-5-(phenylethynyl)pyridin-2-yl)carbamoyl)-1H-pyrazol-1-yl)methyl)-3-methylpiperidine-1-carboxylate] | 430 nM
CC(=O)N1CCC(CCn2ncc(Cl)c2C(=O)Nc2ncc(C#Cc3ccccc3F)cc2C)CC1 [Compound 196, 1-(2-(1-acetylpiperidin-4-yl)ethyl)-4-chloro-N-(5-((2-fluorophenyl)ethynyl)-3-methylpyridin-2-yl)-1H-pyrazole-5-carboxamide] | 300 nM

same assay, conditions: TREK-1 Thallium (Tl+) flux assay; values without footnote *12 are Method 1

Compound | IC50
CC(=O)N1CCC(n2ncc(Cl)c2C(=O)Nc2ncc(C#Cc3ccccc3F)cc2C)C(F)C1 (stereo in doubt) [Compound 159, 1-((3R,4R)-1-acetyl-3-fluoropiperidin-4-yl)-4-chloro-N-(5-((2-fluorophenyl)ethynyl)-3-methylpyridin-2-yl)-1H-pyrazole-5-carboxamide] | 250 nM
CC(=O)N1CCC(n2ncc(Cl)c2C(=O)Nc2ncc(C#Cc3cccs3)cc2F)CC1 [Compound 18, 1-(1-acetylpiperidin-4-yl)-4-chloro-N-(3-fluoro-5-(thiophen-2-ylethynyl)pyridin-2-yl)-1H-pyrazole-5-carboxamide] | 60 nM
Cc1cc(C#Cc2ccc(F)cc2)cnc1NC(=O)c1c(Cl)cnn1C1CCN(C(=O)C2CC2)CC1 [Compound 101, 4-chloro-1-(1-(cyclopropanecarbonyl)piperidin-4-yl)-N-(5-((4-fluorophenyl)ethynyl)-3-methylpyridin-2-yl)-1H-pyrazole-5-carboxamide] | 190 nM
CC(=O)N1CCCC(n2ncc(Cl)c2C(=O)Nc2ncc(C#Cc3ccccc3)cc2C)CC1 (stereo not drawn) [Compound 131, 1-(1-acetylazepan-4-yl)-4-chloro-N-(3-methyl-5-(phenylethynyl)pyridin-2-yl)-1H-pyrazole-5-carboxamide] | 220 nM
Cc1cc(C#Cc2cccc(F)c2)cnc1NC(=O)c1c(Cl)cnn1C1CCN(C(=O)C(C)C)CC1 [Compound 152, 4-chloro-N-(5-((3-fluorophenyl)ethynyl)-3-methylpyridin-2-yl)-1-(1-isobutyrylpiperidin-4-yl)-1H-pyrazole-5-carboxamide] | 240 nM

same assay, conditions: read-out: Tl^+ Assay % inhibition at 30 uM (Minus value indicates activation of TREK-1); at 30 uM; CHO-K1 cells stably expressing human TREK-1; minus = activation

Compound | inhibition at 30 µM
CC(=O)N1CCC(CCn2cc(Cl)c(C(=O)Nc3ncc(C#Cc4ccc(F)cc4)cc3C)n2)CC1 [Compound 442, 1-(2-(1-acetylpiperidin-4-yl)ethyl)-4-chloro-N-(5-((4-fluorophenyl)ethynyl)-3-methylpyridin-2-yl)-1H-pyrazole-3-carboxamide] | -118%
